Laboratory results as given in the NIST ThermoML archive (doi:10.1021/acs.jced.8b00153).
Several values for one entry are separate records, joined by “and”; a condition that tells them apart may be missing. Identical values can stand only once.

Details: for speed of sound / mass density / viscosity / vapor or sublimation pressure: Liquid; for speed of sound: Frequency=3 MHz, Single path-length method; for mass density: Vibrating tube method; for surface tension liquid-gas: Drop volume; for viscosity: Capillary tube (Ostwald / Ubbelohde) method; for vapor or sublimation pressure: Ebulliometric method (Recirculating still)

CCc1ccco1 [2-ethylfuran]
Details	mass density	speed of sound [m/s]	viscosity [mPa·s]
313.15 K, 100 kPa	882.52 kg/m3 and 882.49 kg/m3	1129.2	–
313.15 K, 2000 kPa	884.62 kg/m3	–	–
313.15 K, 5000 kPa	887.63 kg/m3	–	–
313.15 K, 7000 kPa	889.75 kg/m3	–	–
313.15 K, 10000 kPa	892.61 kg/m3	–	–
313.15 K, 15000 kPa	897.4 kg/m3	–	–
313.15 K, 20000 kPa	901.8 kg/m3	–	–
313.15 K, 25000 kPa	906.18 kg/m3	–	–
313.15 K, 30000 kPa	910.18 kg/m3	–	–
313.15 K, 35000 kPa	914.06 kg/m3	–	–
313.15 K, 40000 kPa	917.85 kg/m3	–	–
313.15 K, 45000 kPa	921.58 kg/m3	–	–
313.15 K, 50000 kPa	925.04 kg/m3	–	–
313.15 K, 55000 kPa	928.5 kg/m3	–	–
313.15 K, 60000 kPa	931.93 kg/m3	–	–
313.15 K, 65000 kPa	935.06 kg/m3	–	–
315.65 K, 100 kPa	879.73 kg/m3	1118.1	0.4049
318.15 K, 100 kPa	876.92 kg/m3 and 876.88 kg/m3	1107.4	0.3962
318.15 K, 2000 kPa	879.13 kg/m3	–	–
318.15 K, 5000 kPa	882.2 kg/m3	–	–
318.15 K, 7000 kPa	884.37 kg/m3	–	–
318.15 K, 10000 kPa	887.44 kg/m3	–	–
318.15 K, 15000 kPa	892.29 kg/m3	–	–
318.15 K, 20000 kPa	896.91 kg/m3	–	–
318.15 K, 25000 kPa	901.27 kg/m3	–	–
318.15 K, 30000 kPa	905.42 kg/m3	–	–
318.15 K, 35000 kPa	909.5 kg/m3	–	–
318.15 K, 40000 kPa	913.4 kg/m3	–	–
318.15 K, 45000 kPa	917.1 kg/m3	–	–
318.15 K, 50000 kPa	920.67 kg/m3	–	–
318.15 K, 55000 kPa	924.18 kg/m3	–	–
318.15 K, 60000 kPa	927.71 kg/m3	–	–
318.15 K, 65000 kPa	930.91 kg/m3	–	–
320.65 K, 100 kPa	874.11 kg/m3	1096.5	0.3885
323.15 K, 100 kPa	871.29 kg/m3 and 871.23 kg/m3	1085.6	0.3794
323.15 K, 2000 kPa	873.56 kg/m3	–	–
323.15 K, 5000 kPa	876.77 kg/m3	–	–
323.15 K, 7000 kPa	878.96 kg/m3	–	–
323.15 K, 10000 kPa	882.17 kg/m3	–	–
323.15 K, 15000 kPa	887.15 kg/m3	–	–
323.15 K, 20000 kPa	891.93 kg/m3	–	–
323.15 K, 25000 kPa	896.47 kg/m3	–	–
323.15 K, 30000 kPa	900.65 kg/m3	–	–
323.15 K, 35000 kPa	904.8 kg/m3	–	–
323.15 K, 40000 kPa	908.8 kg/m3	–	–
323.15 K, 45000 kPa	912.67 kg/m3	–	–
323.15 K, 50000 kPa	916.35 kg/m3	–	–
323.15 K, 55000 kPa	919.97 kg/m3	–	–
323.15 K, 60000 kPa	923.48 kg/m3	–	–
323.15 K, 65000 kPa	926.81 kg/m3	–	–
325.65 K, 100 kPa	868.46 kg/m3	1074.8	0.3706
328.15 K, 100 kPa	865.62 kg/m3 and 865.59 kg/m3	1063.8	0.3619
328.15 K, 2000 kPa	867.92 kg/m3	–	–
328.15 K, 5000 kPa	871.27 kg/m3	–	–
328.15 K, 7000 kPa	873.57 kg/m3	–	–
328.15 K, 10000 kPa	876.84 kg/m3	–	–
328.15 K, 15000 kPa	882.03 kg/m3	–	–
328.15 K, 20000 kPa	886.97 kg/m3	–	–
328.15 K, 25000 kPa	891.57 kg/m3	–	–
328.15 K, 30000 kPa	895.96 kg/m3	–	–
328.15 K, 35000 kPa	900.23 kg/m3	–	–
328.15 K, 40000 kPa	904.35 kg/m3	–	–
328.15 K, 45000 kPa	908.24 kg/m3	–	–
328.15 K, 50000 kPa	912.04 kg/m3	–	–
328.15 K, 55000 kPa	915.63 kg/m3	–	–
328.15 K, 60000 kPa	919.32 kg/m3	–	–
328.15 K, 65000 kPa	922.64 kg/m3	–	–
330.65 K, 100 kPa	862.76 kg/m3	1053.7	0.3536
333.15 K, 100 kPa	859.9 kg/m3 and 859.9 kg/m3	1042.2	0.3455
333.15 K, 2000 kPa	862.3 kg/m3	–	–
333.15 K, 5000 kPa	865.81 kg/m3	–	–
333.15 K, 7000 kPa	868.2 kg/m3	–	–
333.15 K, 10000 kPa	871.58 kg/m3	–	–
333.15 K, 15000 kPa	876.87 kg/m3	–	–
333.15 K, 20000 kPa	881.93 kg/m3	–	–
333.15 K, 25000 kPa	886.74 kg/m3	–	–
333.15 K, 30000 kPa	891.26 kg/m3	–	–
333.15 K, 35000 kPa	895.59 kg/m3	–	–
333.15 K, 40000 kPa	899.79 kg/m3	–	–
333.15 K, 45000 kPa	903.78 kg/m3	–	–
333.15 K, 50000 kPa	907.66 kg/m3	–	–
333.15 K, 55000 kPa	911.34 kg/m3	–	–
333.15 K, 60000 kPa	915.07 kg/m3	–	–
333.15 K, 65000 kPa	918.6 kg/m3	–	–
335.65 K, 100 kPa	857.02 kg/m3	1032.1	0.3372
338.15 K, 100 kPa	854.13 kg/m3 and 854.07 kg/m3	1020.5	0.33
338.15 K, 2000 kPa	856.63 kg/m3	–	–
338.15 K, 5000 kPa	860.21 kg/m3	–	–
338.15 K, 7000 kPa	862.69 kg/m3	–	–
338.15 K, 10000 kPa	866.19 kg/m3	–	–
338.15 K, 15000 kPa	871.73 kg/m3	–	–
338.15 K, 20000 kPa	876.98 kg/m3	–	–
338.15 K, 25000 kPa	881.86 kg/m3	–	–
338.15 K, 30000 kPa	886.43 kg/m3	–	–
338.15 K, 35000 kPa	890.92 kg/m3	–	–
338.15 K, 40000 kPa	895.2 kg/m3	–	–
338.15 K, 45000 kPa	899.36 kg/m3	–	–
338.15 K, 50000 kPa	903.34 kg/m3	–	–
338.15 K, 55000 kPa	907.07 kg/m3	–	–
338.15 K, 60000 kPa	910.92 kg/m3	–	–
338.15 K, 65000 kPa	914.41 kg/m3	–	–

Details	surface tension liquid-gas [mN/m]	vapor or sublimation pressure [kPa]
315.65 K	22.66	–
317.62 K	–	18.64
318.15 K	22.3	–
320.45 K	–	20.98
320.65 K	22.07	–
322.48 K	–	22.8
323.15 K	21.77	–
324.89 K	–	25.18
325.65 K	21.4	–
327.06 K	–	27.46
328.15 K	21.08	–
329.8 K	–	30.6
330.65 K	20.87	–
331.39 K	–	32.49
333.15 K	20.5	–
333.19 K	–	34.85
334.73 K	–	36.94
335.65 K	20.28	–
336.84 K	–	39.92
338.15 K	19.95	–
338.83 K	–	42.91
340.3 K	–	45.25
342.6 K	–	49.13
344.85 K	–	53.18
347.05 K	–	57.4
348.94 K	–	61.22
350.71 K	–	64.98
352.9 K	–	69.89
354.83 K	–	74.51
356.8 K	–	79.34
358.65 K	–	84.17
360.61 K	–	89.59
361.79 K	–	92.94
362.46 K	–	94.88
363.67 K	–	98.45
364.18 K	–	100.08
364.61 K	–	101.33
